{"source": "paper PMC8745345", "about": "“Hydroxy Pentacyclic Triterpene Acid, Kaempferol, Inhibits the Human 5-Hydroxytryptamine Type 3A Receptor Activity” (International Journal of Molecular Sciences, 2022)", "target": "T1, human 5-HT3A receptor E209A mutant (Homo sapiens, UniProt P46098, E231A)", "T1 construct": "expressed in transfected cells; host or cells: Xenopus oocytes injected with mutant mRNA", "T1 sequence (P46098 24-478 E231A)": "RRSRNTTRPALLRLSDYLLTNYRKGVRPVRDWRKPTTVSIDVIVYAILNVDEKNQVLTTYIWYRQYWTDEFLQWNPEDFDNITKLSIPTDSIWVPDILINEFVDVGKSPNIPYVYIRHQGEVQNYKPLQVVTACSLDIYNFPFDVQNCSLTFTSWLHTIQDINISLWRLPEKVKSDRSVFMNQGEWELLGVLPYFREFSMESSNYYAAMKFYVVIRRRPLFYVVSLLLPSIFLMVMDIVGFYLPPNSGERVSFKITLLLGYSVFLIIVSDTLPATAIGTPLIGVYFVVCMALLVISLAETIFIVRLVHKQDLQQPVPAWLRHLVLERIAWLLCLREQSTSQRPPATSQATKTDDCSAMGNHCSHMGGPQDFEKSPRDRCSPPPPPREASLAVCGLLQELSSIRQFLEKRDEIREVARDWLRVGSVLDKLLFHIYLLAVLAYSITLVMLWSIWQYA", "assay": "Two-electrode voltage clamp, I5-HT inhibition, E209A mutant", "format": "cell-based", "method": "Human 5-HT3A receptor cDNA was linearized using restriction enzyme XhoI. In vitro transcription was performed using an mMESSAGE mMACHINE T7 Transcription Kit (Thermo Fisher Scientific, Waltham, MA, USA). The final mRNA product was dissolved in 1X Diethyl Pyrocarbonate (RNase-free water) at a final concentration of 1 μg/μL and kept in a deep-freezer at −80 °C until used.\nXenopus oocytes were used in this study as cells for expression of human 5-HT3A receptor. All female frogs used in this experiment were obtained from the Korean Xenopus Resource Center for Research (KXRCR000001). […] Isolated oocytes were incubated with ND96 incubation buffer (96 mM NaCl, 2 mM KCl, 1 mM MgCl2, 1.8 mM CaCl2, 5 mM HEPES, 2.5 mM sodium pyruvate, and […], pH 7.4) at 18 °C until the experiment was performed. Human 5-HT3A receptor mRNA was injected into oocytes using a nanoinjector (Drummond Scientific, Broomall, PA, USA) with a mineral-filled 10 μL microdispenser (VWR, Piscataway, NJ, USA).\nFor the experiment, induced-inward current was converted to digital data with pClamp 10 software (Axon Instruments, Union City, CA, USA). All experiments were performed at room temperature using an oocyte clamp equipped with Digidata. The membrane holding potential was −80 mV.\nThe voltage relationship experiment for confirming the relationship between induce-inward current and voltage, the voltage was varied from −80 mV to +60 mV using a ramp protocol. Each microelectrode was filled with 3 M KCl having a resistance of 0.2 MΩ. Serotonin and KAE applied in the experiment were diluted in ND96 bath solution (96 mM NaCl, 2 mM KCl, 1 mM MgCl2, 1.8 mM CaCl2, and 5 mM HEPES, pH 7.5) to specified concentration. The rate of application of the reagent was 2 mL per minute. All recording data were analyzed using Clampfit 9.0 (Molecular Devices, San Jose, CA, USA). […]\nAll presented experiments were performed at least three times for scientific verification. […] Induced-inward current data were analyzed with SigmaPlot 10.0 software (Systat Software, Inc., San Jose, CA, USA)."}
{"smiles": "O=c1c(O)c(-c2ccc(O)cc2)oc2cc(O)cc(O)c12", "note": "[KAE, kaempferol]", "values": [{"measurement": "IC50", "value": "55.1 ± 5.8", "unit": "µM"}, {"measurement": "Vmax", "setting": "E209A, −80 mV", "value": "81.1 ± 9.7", "unit": "%"}, {"measurement": "n (Hill coefficient)", "setting": "E209A, −80 mV", "value": "1.7 ± 0.6"}]}
